Results on 26 molecules are retold here after patent US20080234262A1 (Wyeth, priority 2007, published 2008).

Experiment [1] relates to prostate line LNCap. Kind of experiment: In vitro cell culture growth assay (MTS), LNCap. Type of experiment: cell-based, human. Conditions: LNCap cells, three days after drug treatment.
The test system of experiment [2] is breast line MDA468. The experiment is described as follows: In vitro cell culture growth assay (MTS), MDA468. Type of experiment: cell-based, human. Conditions: MDA468 cells, three days after drug treatment. In outline: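 Cells were plated and, one day later, exposed to inhibitors for three days; viable cell density was then measured by metabolic conversion of MTS dye, read as absorbance at 490 nm. Growth is expressed as percent of vehicle-treated control cells on the same plate.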

The target of experiment [3] is PI3K (Homo sapiens, UniProt P42336). The experiment is described as follows: Fluorescence polarization assay for PI3K.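 Also: PI3K kinase reaction on PIP2 with ATP, 30-60 min, product sensed by GST-GRP with red probe in fluorescence polarization (mP), controls without enzyme and at zero time.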 Type of experiment: biochemical. Particulars: PI3Kα; read-out: PI3Kα IC50. On the technique in general: In fluorescence polarisation assays a small probe gives low polarisation when free and higher when bound to something large.
Chain of PI3K (P42336 whole entry): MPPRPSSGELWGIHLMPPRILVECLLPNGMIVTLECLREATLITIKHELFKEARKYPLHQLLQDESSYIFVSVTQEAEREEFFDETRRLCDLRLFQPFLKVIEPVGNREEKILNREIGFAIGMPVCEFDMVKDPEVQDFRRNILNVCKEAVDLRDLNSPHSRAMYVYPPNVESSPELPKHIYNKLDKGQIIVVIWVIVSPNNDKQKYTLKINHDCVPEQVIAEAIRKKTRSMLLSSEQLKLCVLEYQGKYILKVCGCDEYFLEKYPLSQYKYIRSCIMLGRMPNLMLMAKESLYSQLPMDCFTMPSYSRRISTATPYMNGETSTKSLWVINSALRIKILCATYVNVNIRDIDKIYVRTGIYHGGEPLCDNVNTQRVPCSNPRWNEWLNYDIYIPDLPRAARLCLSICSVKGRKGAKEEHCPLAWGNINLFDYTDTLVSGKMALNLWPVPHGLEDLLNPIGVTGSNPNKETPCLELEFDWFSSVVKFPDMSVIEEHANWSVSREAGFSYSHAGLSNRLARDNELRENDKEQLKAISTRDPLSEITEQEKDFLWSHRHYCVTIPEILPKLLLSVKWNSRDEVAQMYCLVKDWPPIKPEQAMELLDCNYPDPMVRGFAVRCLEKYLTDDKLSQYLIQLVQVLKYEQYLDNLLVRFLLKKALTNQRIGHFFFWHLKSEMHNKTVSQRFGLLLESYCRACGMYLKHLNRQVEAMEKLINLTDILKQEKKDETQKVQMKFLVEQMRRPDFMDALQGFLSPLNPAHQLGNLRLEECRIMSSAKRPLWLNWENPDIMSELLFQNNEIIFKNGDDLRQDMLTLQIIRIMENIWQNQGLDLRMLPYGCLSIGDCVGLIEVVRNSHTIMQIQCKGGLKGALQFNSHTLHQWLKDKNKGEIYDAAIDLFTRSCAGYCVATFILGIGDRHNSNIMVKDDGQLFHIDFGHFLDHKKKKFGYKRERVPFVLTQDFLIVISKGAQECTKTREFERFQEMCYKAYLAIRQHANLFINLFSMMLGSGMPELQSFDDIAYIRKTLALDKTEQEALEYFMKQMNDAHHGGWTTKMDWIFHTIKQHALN
Chain of PI3K (P27986 whole entry partner): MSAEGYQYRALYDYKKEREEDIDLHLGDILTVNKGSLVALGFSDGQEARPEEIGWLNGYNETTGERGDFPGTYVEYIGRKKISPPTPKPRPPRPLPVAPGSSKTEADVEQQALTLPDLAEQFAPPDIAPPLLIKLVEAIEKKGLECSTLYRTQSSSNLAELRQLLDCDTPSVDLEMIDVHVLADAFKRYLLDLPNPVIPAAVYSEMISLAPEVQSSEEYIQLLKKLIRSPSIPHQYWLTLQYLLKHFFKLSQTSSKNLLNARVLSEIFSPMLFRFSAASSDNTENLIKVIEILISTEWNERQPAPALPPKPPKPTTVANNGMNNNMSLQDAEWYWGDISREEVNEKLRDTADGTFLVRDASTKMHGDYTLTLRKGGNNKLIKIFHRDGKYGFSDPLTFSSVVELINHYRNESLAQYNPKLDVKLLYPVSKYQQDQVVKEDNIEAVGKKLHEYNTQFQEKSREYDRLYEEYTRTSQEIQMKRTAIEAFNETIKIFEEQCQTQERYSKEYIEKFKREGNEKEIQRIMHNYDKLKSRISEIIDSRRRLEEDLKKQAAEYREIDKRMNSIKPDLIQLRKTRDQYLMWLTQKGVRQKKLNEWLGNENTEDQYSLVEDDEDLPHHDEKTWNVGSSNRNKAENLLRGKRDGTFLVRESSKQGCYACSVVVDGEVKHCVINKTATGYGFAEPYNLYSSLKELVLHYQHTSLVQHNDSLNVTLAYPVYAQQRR

SMILES strings stand for the structures.

The term IC50 denotes the concentration that inhibits the measured activity by half. Regarding `CCOC(=O)N1CCC(n2ncc3c(N4CCOC[C@H]4C)nc(-c4ccc(NC(=O)Nc5ccccc5)cc4)nc32)CC1` [Compound 891, ethyl 4-(4-[(3R)-3-methylmorpholin-4-yl]-6-{4-[(phenylcarbamoyl)amino]phenyl}-1H-pyrazolo[3,4-d]pyrimidin-1-yl)piperidine-1-carboxylate], the IC50 was found to be 20 nM in experiment [1] (Homo sapiens, LNCaP, 72 h); 210 nM in experiment [2] (Homo sapiens, 72 h); 590 nM in experiment [3].

Consider `O=C(NCCCO)Nc1ccc(-c2nc(N3CCOCC3)c3cnn(C4CCN(Cc5ccccc5)CC4)c3n2)cc1` [Compound 514, 1-{4-[1-(1-benzylpiperidin-4-yl)-4-morpholin-4-yl-1H-pyrazolo[3,4-d]pyrimidin-6-yl]phenyl}-3-(3-hydroxypropyl)urea], for which the IC50 in experiment [1] (Homo sapiens, LNCaP, 72 h) was 80 nM; in experiment [2] (Homo sapiens, 72 h) it was 650 nM; in experiment [3] it was 364 nM.

As to `CN(C)CCCNC(=O)c1ccc(-c2nc(N3CCOCC3)c3cnn(-c4ccccc4)c3n2)cc1` [Compound 102], the IC50 in experiment [1] (Homo sapiens, LNCaP, 72 h) is 3200 nM; in experiment [2] (Homo sapiens, 72 h), 7500 nM; in experiment [3] it was 320 nM.

For the molecule `COC(=O)Nc1ccc(-c2nc(N3CCOCC3)c3cnn(C4CCN(C(=O)c5ccccc5F)CC4)c3n2)cc1` [Example 443, methyl (4-{1-[1-(2-fluorobenzoyl)piperidin-4-yl]-4-morpholin-4-yl-1H-pyrazolo[3,4-d]pyrimidin-6-yl}phenyl)carbamate], the concentration for half-maximal inhibition (IC50) was 250 nM in experiment [1] (Homo sapiens, LNCaP, 72 h); 500 nM in experiment [2] (Homo sapiens, 72 h); 1140 nM in experiment [3].

In the case of `CNC(=O)Nc1ccc(-c2nc(N3CCOCC3)c3cnn(C4CCC(=O)CC4)c3n2)cc1` [Example 322, 1-methyl-3-{4-[4-morpholin-4-yl-1-(4-oxocyclohexyl)-1H-pyrazolo[3,4-d]pyrimidin-6-yl]phenyl}urea], the 50% inhibitory concentration (IC50) in experiment [1] (Homo sapiens, LNCaP, 72 h) is 27 nM; in experiment [2] (Homo sapiens, 72 h), 200 nM; in experiment [3], 56 nM.

Regarding `CNC(=O)Nc1ccc(-c2nc(N3CCOCC3)c3cnn(C4CC[S+]([O-])CC4)c3n2)cc1` (stereo not drawn) [Compound 868, 1-methyl-3-{4-[4-morpholin-4-yl-1-(1-oxidotetrahydro-2H-thiopyran-4-yl)-1H-pyrazolo[3,4-d]pyrimidin-6-yl]phenyl}urea], the IC50 was 1200 nM in experiment [1] (Homo sapiens, LNCaP, 72 h); 720 nM in experiment [2] (Homo sapiens, 72 h); 80 nM in experiment [3].

Take `c1cc2cc(-c3nc(N4CCOCC4)c4cnn(CCN5CCCCC5)c4n3)ccc2[nH]1` [Compound 125]: the half-inhibitory concentration (IC50) was 4400 nM in experiment [1] (Homo sapiens, LNCaP, 72 h); 7300 nM in experiment [2] (Homo sapiens, 72 h); 9750 nM in experiment [3].

Regarding `O=C(Nc1ccc(-c2nc(N3CCOCC3)c3cnn(C4CCN(CC(F)(F)F)CC4)c3n2)cc1)OCCO` [Compound 923, 2-hydroxyethyl (4-{4-morpholin-4-yl-1-[1-(2,2,2-trifluoroethyl)piperidin-4-yl]-1H-pyrazolo[3,4-d]pyrimidin-6-yl}phenyl)carbamate], the IC50 came to 110 nM in experiment [1] (Homo sapiens, LNCaP, 72 h); 1200 nM in experiment [2] (Homo sapiens, 72 h); 737 nM in experiment [3].

Regarding `CC(C)(C)OC(=O)N1CCC(n2ncc3c(N4CCOCC4)nc(-c4ccc(NC(=O)Nc5ccccn5)cc4)nc32)CC1` [Compound 769, tert-butyl 4-(4-morpholin-4-yl-6-{4-[(pyridin-2-ylcarbamoyl)amino]phenyl}-1H-pyrazolo[3,4-d]pyrimidin-1-yl)piperidine-1-carboxylate], the half-maximal inhibitory concentration (IC50) came out at 3500 nM in experiment [1] (Homo sapiens, LNCaP, 72 h); 7000 nM in experiment [2] (Homo sapiens, 72 h); 2190 nM in experiment [3].

For the molecule `CC(=O)Nc1ccc(-c2nc(N3CCOCC3)c3cnn(Cc4ccccc4)c3n2)cc1` [Compound 180], the IC50 stood at 2000 nM in experiment [1] (Homo sapiens, LNCaP, 72 h); 5800 nM in experiment [2] (Homo sapiens, 72 h); 405 nM in experiment [3].

On to `CCNC(=O)Nc1ccc(-c2nc(N3CCOC(C)C3)c3cnn(C4CCN(C(=O)OC)CC4)c3n2)cc1` (stereo not drawn) [Compound 842, methyl 4-[6-{4-[(ethylcarbamoyl)amino]phenyl}-4-(2-methylmorpholin-4-yl)-1H-pyrazolo[3,4-d]pyrimidin-1-yl]piperidine-1-carboxylate], for which the IC50 in experiment [1] (Homo sapiens, LNCaP, 72 h) was found to be 70 nM; in experiment [2] (Homo sapiens, 72 h) it was 1000 nM; in experiment [3], 721 nM.

Turning to `CNC(=O)Nc1ccc(-c2nc(N3CCOCC3)c3cnn(C4CCN(C(=O)OCCN(C)C)CC4)c3n2)cc1` [Compound 803, 2-(dimethylamino)ethyl 4-(6-{4-[(methylcarbamoyl)amino]phenyl}-4-morpholin-4-yl-1H-pyrazolo[3,4-d]pyrimidin-1-yl)piperidine-1-carboxylate], the IC50 was 1000 nM in experiment [1] (Homo sapiens, LNCaP, 72 h); 1000 nM in experiment [2] (Homo sapiens, 72 h); 173 nM in experiment [3].

For the molecule `O=C(NO)Nc1ccc(-c2nc(N3CCOCC3)c3cnn(-c4ccccc4)c3n2)cc1` [Example 293, 1-hydroxy-3-[4-(4-morpholin-4-yl-1-phenyl-1H-pyrazolo[3,4-d]pyrimidin-6-yl)phenyl]urea], the IC50 in experiment [1] (Homo sapiens, LNCaP, 72 h) was found to be 480 nM; in experiment [2] (Homo sapiens, 72 h), 1100 nM; in experiment [3], 211 nM.

Take `CCNC(=O)Nc1ccc(-c2nc(N3CCOC[C@H]3C)c3cnn(C4CCN(C(=O)OCC)CC4)c3n2)cc1` [Compound 889, ethyl 4-(6-{4-[(ethylcarbamoyl)amino]phenyl}-4-[(3R)-3-methylmorpholin-4-yl]-1H-pyrazolo[3,4-d]pyrimidin-1-yl)piperidine-1-carboxylate]: the IC50 in experiment [1] (Homo sapiens, LNCaP, 72 h) stood at 19 nM; in experiment [2] (Homo sapiens, 72 h) it was 600 nM; in experiment [3], 4360 nM.

`CNC(=O)Nc1ccc(-c2nc(N3CCOCC3)c3cnn(C4CCN(C(=O)c5ccccn5)CC4)c3n2)cc1` [Example 418, 1-methyl-3-(4-{4-morpholin-4-yl-1-[1-(pyridin-2-ylcarbonyl)piperidin-4-yl]-1H-pyrazolo[3,4-d]pyrimidin-6-yl}phenyl)urea]: the IC50 in experiment [1] (Homo sapiens, LNCaP, 72 h) was found to be 120 nM; in experiment [2] (Homo sapiens, 72 h), 200 nM; in experiment [3] it was 124 nM.

For the molecule `COC(=O)N1CCC(n2ncc3c(N4CCOCC4)nc(-c4ccc(O)cc4)nc32)CC1` [Compound 944, methyl 4-[6-(4-hydroxyphenyl)-4-morpholin-4-yl-1H-pyrazolo[3,4-d]pyrimidin-1-yl]piperidine-1-carboxylate], the IC50 was found to be 900 nM in experiment [1] (Homo sapiens, LNCaP, 72 h); 2100 nM in experiment [2] (Homo sapiens, 72 h); 2660 nM in experiment [3].

With `CNC(=O)Nc1ccc(-c2nc(N3CCOCC3)c3cnn(C4CCN(Cc5ccc(Cl)nc5)CC4)c3n2)cc1` [Compound 633, 1-[4-(1-{1-[(6-chloropyridin-3-yl)methyl]piperidin-4-yl}-4-morpholin-4-yl-1H-pyrazolo[3,4-d]pyrimidin-6-yl)phenyl]-3-methylurea], the concentration for half-maximal inhibition (IC50) in experiment [1] was under 27 nM; in experiment [2], 48 nM; in experiment [3], 47 nM.

Regarding `c1cc2cc(-c3nc(N4CCOCC4)c4cnn(CCN5CCNCC5)c4n3)ccc2[nH]1` [Compound 162, 6-(1H-indol-5-yl)-4-morpholin-4-yl-1-(2-piperazin-1-ylethyl)-1H-pyrazolo[3,4-d]pyrimidine], the concentration for half-maximal inhibition (IC50) in experiment [1] (Homo sapiens, LNCaP, 72 h) stood at 33000 nM; in experiment [2] (Homo sapiens, 72 h), 60000 nM; in experiment [3], 1850 nM.

With `O=C(NCC(F)(F)F)Nc1ccc(-c2nc(N3CCOCC3)c3cnn(C4CCN(Cc5ccccc5)CC4)c3n2)cc1` [Example 289, 1-{4-[1-(1-benzylpiperidin-4-yl)-4-morpholin-4-yl-1H-pyrazolo[3,4-d]pyrimidin-6-yl]phenyl}-3-(2,2,2-trifluoroethyl)urea], the IC50 in experiment [1] (Homo sapiens, LNCaP, 72 h) stood at 320 nM; in experiment [2] (Homo sapiens, 72 h), 1300 nM; in experiment [3] it was 590 nM.

For `O=C(N1CCOCC1)N1CCC(n2ncc3c(N4CCOCC4)nc(-c4ccc5[nH]ccc5c4)nc32)CC1` [Compound 121], the IC50 in experiment [1] (Homo sapiens, LNCaP, 72 h) was 600 nM; in experiment [2] (Homo sapiens, 72 h) it was 2000 nM; in experiment [3] it was 2130 nM.

With `CNC(=O)Nc1ccc(-c2nc(N3CCOCC3)c3cnn(C4CCN(C(=O)OCc5ccccc5)CC4)c3n2)cc1` [Compound 880, benzyl 4-(6-{4-[(methylcarbamoyl)amino]phenyl}-4-morpholin-4-yl-1H-pyrazolo[3,4-d]pyrimidin-1-yl)piperidine-1-carboxylate], the IC50 stood at 30 nM in experiment [1] (Homo sapiens, LNCaP, 72 h); 220 nM in experiment [2] (Homo sapiens, 72 h); 20 nM in experiment [3].

Consider `O=C(NO)Nc1ccc(-c2nc(N3CCOCC3)c3cnn(C4CCN(Cc5ccccc5)CC4)c3n2)cc1` [Compound 555, 1-{4-[1-(1-benzylpiperidin-4-yl)-4-morpholin-4-yl-1H-pyrazolo[3,4-d]pyrimidin-6-yl]phenyl}-3-hydroxyurea], for which the IC50 in experiment [1] (Homo sapiens, LNCaP, 72 h) amounted to 100 nM; in experiment [2] (Homo sapiens, 72 h) it was 1100 nM; in experiment [3] it was 198 nM.

In the case of `CNCCNC(=O)Nc1ccc(-c2nc(N3CCOCC3)c3cnn(C4CCN(Cc5ccccc5)CC4)c3n2)cc1` [Example 300, 1-{4-[1-(1-benzylpiperidin-4-yl)-4-morpholin-4-yl-1H-pyrazolo[3,4-d]pyrimidin-6-yl]phenyl}-3-[2-(methylamino)ethyl]urea], the 50% inhibitory concentration (IC50) stood at 200 nM in experiment [1] (Homo sapiens, LNCaP, 72 h); 200 nM in experiment [2] (Homo sapiens, 72 h); 13 nM in experiment [3].

As for `Cc1ccncc1C(=O)N1CCC(n2ncc3c(N4CCOCC4)nc(-c4ccc5[nH]ccc5c4)nc32)CC1` [Example 199, 6-(1H-indol-5-yl)-1-{1-[(4-methylpyridin-3-yl)carbonyl]piperidin-4-yl}-4-morpholin-4-yl-1H-pyrazolo[3,4-d]pyrimidine], the IC50 amounted to 450 nM in experiment [1] (Homo sapiens, LNCaP, 72 h); 1800 nM in experiment [2] (Homo sapiens, 72 h); 2940 nM in experiment [3].

As for `CN(C)CCNC(=O)c1ccc(-c2nc(N3CCOCC3)c3cnn(-c4ccccc4)c3n2)cc1` [Compound 103], the IC50 in experiment [1] (Homo sapiens, LNCaP, 72 h) stood at 3900 nM; in experiment [2] (Homo sapiens, 72 h) it was 5000 nM; in experiment [3], 580 nM.

Take `CS(=O)(=O)Nc1ccc(-c2nc(N3CCOCC3)c3cnn(-c4ccccc4)c3n2)cc1` [Compound 99]: the IC50 stood at 3500 nM in experiment [1] (Homo sapiens, LNCaP, 72 h); 5000 nM in experiment [2] (Homo sapiens, 72 h); 332 nM in experiment [3].
